Measurements: patent US9980943B2, “Methods of treating muscular dystrophy” (BOARD OF REGENTS OF THE NEVADA SYSTEM OF HIGHER EDUCATION, …, priority 2013, dated 2018)

Experiments:
Assay type in all cases: cell-based, mouse
[1] = test system: α7 integrin (LacZ reporter in α7βgal+/− myoblasts); assay: Myoblast α7+/LacZ integrin FDG assay (Burkin assay in myoblasts, 96-well); conditions: α7+/LacZ myoblasts, 96-well
[2] = test system: α7 integrin (LacZ reporter in α7+/LacZ myotubes); assay: Myotube α7 integrin FDG assay (Burkin assay in myotubes, 96-well); conditions: myotubes
[3] = test system: β-galactosidase in CMV-LacZ C2C12 myotubes; assay: CMV-LacZ secondary screen in C2C12 myotubes (β-Gal stabilizing assay); conditions: C2C12 CMV-LacZ myotubes, fold relative to DMSO
How it was run: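 β-Gal level was the read-out, measured in a clonal C2C12 line expressing LacZ from a CMV promoter. Dose-response curves used six concentrations, 0.5 μM up to 40 μM, with duplicate points.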

Row | Compound | Burkin Assay in Myoblasts, signal relative to DMSO ([1]; 0.5 uM) | Burkin Assay in Myoblasts, signal relative to DMSO ([1]; 1 uM) | Burkin Assay in Myoblasts, signal relative to DMSO ([1]; 5 uM) | Burkin Assay in Myoblasts, signal relative to DMSO ([1]; 10 uM) | Burkin Assay in Myoblasts, signal relative to DMSO ([1]; 20 uM) | Burkin Assay in Myoblasts, signal relative to DMSO ([1]; 40 uM) | Burkin Assay in Myotubes, α7 integrin LacZ reporter signal relative to DMSO ([2]; 0.5 uM) | Burkin Assay in Myotubes, α7 integrin LacZ reporter signal relative to DMSO ([2]; 1 uM) | Burkin Assay in Myotubes, α7 integrin LacZ reporter signal relative to DMSO ([2]; 5 uM) | Burkin Assay in Myotubes, α7 integrin LacZ reporter signal relative to DMSO ([2]; 10 uM) | Burkin Assay in Myotubes, α7 integrin LacZ reporter signal relative to DMSO ([2]; 20 uM) | Burkin Assay in Myotubes, α7 integrin LacZ reporter signal relative to DMSO ([2]; 40 uM) | CMV-LACZ in Myotubes, signal relative to DMSO ([3]; 5 uM) | CMV-LACZ in Myotubes, signal relative to DMSO ([3]; 10 uM) | CMV-LACZ in Myotubes, signal relative to DMSO ([3]; 20 uM) | CMV-LACZ in Myotubes, signal relative to DMSO ([3]; 40 uM) | further results
1 | Cc1ccc(NS(=O)(=O)c2ccc3c(c2)NC(=O)CCS3)c(Br)c1 [MLS001095231-01] | 0.9692 | 0.9682 | 0.9242 | 0.8637 | 0.9197 | 0.728 | 1.005 | 0.9382 | 1.022 | 0.9695 | 0.9863 | 0.8356 | 1.035 | 0.7409 | 0.9181 | 0.6229 | –
2 | Cc1c(C(=O)N2CCCCC2)c(S(=O)(=O)Nc2cccc(Br)c2)c(C)n1C [MLS001096269-01] | – | – | – | – | – | – | – | – | – | – | – | – | – | – | – | – | fold induction at 0.5 µM ([1]; Mus musculus, Myoblast, 48 h, 0.5 uM, read-out: Burkin Assay in Myoblasts, value relative to DMSO): 1.04; fold induction at 1 µM ([1]; Mus musculus, Myoblast, 48 h, 1 uM, read-out: Burkin Assay in Myoblasts, value relative to DMSO): 1.01; fold induction at 5 µM ([1]; Mus musculus, Myoblast, 48 h, 5 uM, read-out: Burkin Assay in Myoblasts, value relative to DMSO): 0.941; fold induction at 10 µM ([1]; Mus musculus, Myoblast, 48 h, 10 uM, read-out: Burkin Assay in Myoblasts, value relative to DMSO): 1.03; fold induction at 20 µM ([1]; Mus musculus, Myoblast, 48 h, 20 uM, read-out: Burkin Assay in Myoblasts, value relative to DMSO): 1.05; fold induction at 40 µM ([1]; Mus musculus, Myoblast, 48 h, 40 uM, read-out: Burkin Assay in Myoblasts, value relative to DMSO): 1.2; fold induction at 0.5 µM ([2]; Mus musculus, Myotube, 0.5 uM, read-out: Burkin Assay in Myotubes (signal relative to DMSO)): 0.999; fold induction at 1 µM ([2]; Mus musculus, Myotube, 1 uM, read-out: Burkin Assay in Myotubes (signal relative to DMSO)): 1.09; fold induction at 5 µM ([2]; Mus musculus, Myotube, 5 uM, read-out: Burkin Assay in Myotubes (signal relative to DMSO)): 1.31; fold induction at 10 µM ([2]; Mus musculus, Myotube, 10 uM, read-out: Burkin Assay in Myotubes (signal relative to DMSO)): 1.12; fold induction at 20 µM ([2]; Mus musculus, Myotube, 20 uM, read-out: Burkin Assay in Myotubes (signal relative to DMSO)): 1.13; fold induction at 40 µM ([2]; Mus musculus, Myotube, 40 uM, read-out: Burkin Assay in Myotubes (signal relative to DMSO)): 0.912; fold induction at 5 µM ([3]; Mus musculus, C2C12, read-out: CMV-LACZ in Myotubes, signal relative to DMSO, 5 uM): 1.09; fold induction at 10 µM ([3]; Mus musculus, C2C12, read-out: CMV-LACZ in Myotubes, signal relative to DMSO, 10 uM): 0.74; fold induction at 20 µM ([3]; Mus musculus, C2C12, read-out: CMV-LACZ in Myotubes, signal relative to DMSO, 20 uM): 0.986; fold induction at 40 µM ([3]; Mus musculus, C2C12, read-out: CMV-LACZ in Myotubes, signal relative to DMSO, 40 uM): 0.775
3 | O=C(Cn1cccc1C(=O)c1ccccc1)NCCCc1ccccc1 [MLS001110618-01] | 0.9525 | 1.03 | 0.9228 | 1.005 | 0.9713 | 1.083 | 0.9526 | 1.067 | 1.114 | 1.252 | 1.0381 | 0.9463 | 0.8954 | 0.9336 | 1.0555 | 0.4765 | –
